# Measurements: patent EP0326331B1, “Substituted quinolines and cinnolines” (Dow AgroSciences LLC, priority 1988, dated 1989)
# Tests used:
# Type in all cases: in vivo
# [1] = tested on: Erysiphe graminis tritici (powdery mildew); test: Test 1 greenhouse foliar spray screen, powdery mildew on wheat; conditions: disease control rating, foliar spray on wheat, 400 ppm (+++ at 100 ppm)
# [2] = tested on: Botrytis cinerea (gray mold); test: Test 1 greenhouse foliar spray screen, gray mold on grape berries; conditions: disease control rating, spray on grape berries, 400 ppm (+++ at 100 ppm)
# [3] = tested on: Venturia inaequalis (apple scab); test: Test 1 greenhouse foliar spray screen, apple scab on apple seedling; conditions: disease control rating, foliar spray on apple seedling, 400 ppm (+++ at 100 ppm)
# [4] = tested on: southern armyworm (Spodopetra eridania Cramer); test: Mite/insect screen, SAW; conditions: percent mortality, SAW, SM & MA RATE 200 PPM; for mortality at 200 ppm: Spodoptera eridania, read-out: SAW RESULTS %
# Procedure, shortened: (§1)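 Activity is expressed as percent mortality at the indicated spray concentrations. Plants are sprayed to runoff on upper and lower leaf surfaces with aqueous dilutions of an acetone/alcohol emulsifiable formulation, then dried for one hour.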
# [5] = tested on: Puccinia recondita tritici (leaf rust); test: Test 1 greenhouse foliar spray screen, leaf rust on wheat; conditions: disease control rating, foliar spray on wheat, 400 ppm (+++ at 100 ppm)
# [6] = tested on: melon aphids (Aphis gossypii Glover); test: Mite/insect screen, MA; conditions: percent mortality, SAW, SM & MA RATE 200 PPM; for mortality at 200 ppm: Aphis gossypii, read-out: MA RESULTS %
# Procedure, shortened: as §1
# [7] = tested on: Pseudoperonospora cubensis (downy mildew); test: Test 1 greenhouse foliar spray screen, downy mildew on squash; conditions: for DOWN MDEW: disease control rating, foliar spray on squash, 400 ppm (+++ at 100 ppm)
# [8] = tested on: Pyricularia oryzae (rice blast); test: whole plant or invertebrate; conditions: disease control rating, foliar spray on rice, 400 ppm (+++ at 100 ppm)
# [9] = tested on: Twospotted spider mites (Tetranychus urticae Koch); test: Mite/insect screen, SM; conditions: percent mortality, SAW, SM & MA RATE 200 PPM; for mortality at 200 ppm: Tetranychus urticae, read-out: SM RESULTS %
# Procedure, shortened: as §1
# [10] = tested on: Septoria tritici (leaf blotch); test: Test 1 greenhouse foliar spray screen, leaf blotch on wheat; conditions: disease control rating, foliar spray on wheat, 400 ppm (+++ at 100 ppm)
# [11] = tested on: Cercospora beticola (leaf spot); test: Test 1 greenhouse foliar spray screen, leaf spot on sugar beet; conditions: disease control rating, foliar spray on sugar beet, 400 ppm (+++ at 100 ppm)
# [12] = tested on: corn rootworm; test: Mite/insect screen, CRW; conditions: percent mortality, CRW RATE 12.00 PPM; for mortality at 12 ppm: read-out: CRW RESULTS %
# Procedure, shortened: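 Each compound, taken up in an emulsifier-containing acetone/alcohol mixture and diluted in water to the stated concentrations, was assessed for percent kill following standard exposure times.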
SMILES,POWD MDEW [1],GRAY MOLD [2],APPL SCAB [3],mortality at 200 ppm [4],SAW RESULTS % [4],LEAF RUST [5],mortality at 200 ppm [6],MA RESULTS % [6],DOWN MDEW [7],RICE BLAST [8],mortality at 200 ppm [9],SM RESULTS % [9],LEAF BLOT [10],LEAF SPOT [11],CRW RESULTS % [12],mortality at 12 ppm [12],activity against downy mildew ([7]; summary statement in the description)
"c1ccc2cc(CCNc3ccnc4ccccc34)ccc2c1 [Example 152, N-[2-(2-naphthyl)ethyl]-4-quinolinamine]",++ (90-100% control at 400 ppm),- (0-19% control at 400 ppm),- (0-19% control at 400 ppm),0%,0%,++ (90-100% control at 400 ppm),0%,0%,+++ (90-100% control at 100 ppm),+++ (90-100% control at 100 ppm),0%,0%,+++ (90-100% control at 100 ppm),+++ (90-100% control at 100 ppm),0%,0%,–
"FC(F)(F)c1ccc2c(NCCc3cccs3)ccnc2c1 [Example 153, N-[2-(2-thienyl)ethyl]-7-(trifluoromethyl)-4-quinolinamine]",+ (20-89% control at 400 ppm),- (0-19% control at 400 ppm),- (0-19% control at 400 ppm),0%,–,++ (90-100% control at 400 ppm),0%,–,+ (20-89% control at 400 ppm),++ (90-100% control at 400 ppm),0%,–,- (0-19% control at 400 ppm),- (0-19% control at 400 ppm),–,0%,–
"Fc1cccc2c(NCCc3nc(-c4ccccc4)cs3)ccnc12 [Example 154, 8-fluoro-N-[2-(4-phenyl-2-thiazolyl)ethyl]-4-quinolinamine]",++ (90-100% control at 400 ppm),- (0-19% control at 400 ppm),+ (20-89% control at 400 ppm),0%,0%,+++ (90-100% control at 100 ppm),0%,0%,+++ (90-100% control at 100 ppm),+ (20-89% control at 400 ppm),0%,0%,+ (20-89% control at 400 ppm),+ (20-89% control at 400 ppm),0%,0%,particularly excellent activity
"Clc1cccc2c(NCCc3cccc4ccccc34)ccnc12 [Example 155, 8-chloro-N-[2-(1-naphthyl)ethyl]-4-quinolinamine]",- (0-19% control at 400 ppm),- (0-19% control at 400 ppm),- (0-19% control at 400 ppm),0%,–,- (0-19% control at 400 ppm),0%,–,+++ (90-100% control at 100 ppm),+ (20-89% control at 400 ppm),0%,–,- (0-19% control at 400 ppm),- (0-19% control at 400 ppm),–,0%,–
"Clc1cccc2c(NCCc3ccc4ccccc4c3)ccnc12 [Example 156, 8-chloro-N-[2-(2-naphthyl)ethyl]-4-quinolinamine]",- (0-19% control at 400 ppm),- (0-19% control at 400 ppm),- (0-19% control at 400 ppm),0%,0%,+ (20-89% control at 400 ppm),0%,0%,+++ (90-100% control at 100 ppm),+ (20-89% control at 400 ppm),0%,0%,- (0-19% control at 400 ppm),- (0-19% control at 400 ppm),0%,0%,–
